≈ marks a conversion by molar mass, not a printed value.
Legend:
Format in all cases: cell-based
C. albicans = assay: MIC test strips, clinical C. albicans
Description: (§1) C. albicans (SC 5314), C. kruesi (clinical isolate), C. tropicalis (BCRC 20520), C. parapsilosis (BCRC 20515) and C. glabrate (BCRC 20586) were kindly provided by Dr. Ching-Hua Su from Taipei Medical University, Taipei, Taiwan. […] Candida species were cultured in YPD medium and their identities were confirmed by CHROMagar Candida plate (CHROMagar, Paris, France).

C. tropicalis = assay: MIC test strips, clinical C. tropicalis
Description: as §1

C. glabrate = assay: MIC test strips, clinical C. glabrate
Description: as §1

C. parapsilosis = assay: MIC test strips, clinical C. parapsilosis
Description: as §1

[1] = specimen CT11-52, C. tropicalis
[2] = specimen CT12-54, C. tropicalis
[3] = specimen CP6-20, C. parapsilosis
[4] = specimen CP7-17, C. parapsilosis
[5] = specimen CP8-48, C. parapsilosis

- MIC (C. albicans; specimen CA6-17, C. albicans, read at 80% inhibition): 16 µg/mL (≈ 52.2 µM)
- MIC (C. albicans; specimen CA7-3, C. albicans): 2 µg/mL (≈ 6.53 µM)
- MIC (C. albicans; specimen CA7-26, C. albicans): 8 µg/mL (≈ 26.1 µM)
- MIC (C. albicans; specimen CA7-30, C. albicans): 1 µg/mL (≈ 3.27 µM)
- MIC (C. albicans; specimen CA10-50, C. albicans): 2 µg/mL (≈ 6.53 µM)
- MIC (C. albicans; specimen CA10-65, C. albicans): 1 µg/mL (≈ 3.27 µM)
- MIC (C. tropicalis; specimen CT6-29, C. tropicalis): 32 µg/ml
- MIC (C. tropicalis; specimen CT6-50, C. tropicalis): 8 µg/mL (≈ 26.1 µM)
- MIC (C. tropicalis; [1]): 32 µg/ml
- MIC (C. tropicalis; [2]): 8 µg/mL (≈ 26.1 µM)
- MIC (C. glabrate; specimen CG5-8, C. glabrate): 64 µg/mL (≈ 209 µM)
- MIC (C. glabrate; specimen CG5-66, C. glabrate): 16 µg/mL (≈ 52.2 µM)
- MIC (C. glabrate; specimen CG7-37, C. glabrate): 32 µg/ml
- MIC (C. glabrate; specimen CG8-11, C. glabrate): 64 µg/mL (≈ 209 µM)
- MIC (C. parapsilosis; [3]): 16 µg/mL (≈ 52.2 µM)
- MIC (C. parapsilosis; [4]): 8 µg/mL (≈ 26.1 µM)
- MIC (C. parapsilosis; [5]): 4 µg/mL (≈ 13.1 µM)
SMILES: OC(Cn1cncn1)(Cn1cncn1)c1ccc(F)cc1F [fluconazole]
- Interpretation (C. albicans; specimen CA6-17, C. albicans): R
- Interpretation (C. albicans; specimen CA7-3, C. albicans): S
- Interpretation (C. albicans; specimen CA7-26, C. albicans): R
- Interpretation (C. albicans; specimen CA7-30, C. albicans): S
- Interpretation (C. albicans; specimen CA10-50, C. albicans): S
- Interpretation (C. albicans; specimen CA10-65, C. albicans): S
- Interpretation (C. tropicalis; specimen CT6-29, C. tropicalis): R
- Interpretation (C. tropicalis; specimen CT6-50, C. tropicalis): R
- Interpretation (C. tropicalis; [1]): R
- Interpretation (C. tropicalis; [2]): R
- Interpretation (C. glabrate; specimen CG5-8, C. glabrate): R
- Interpretation (C. glabrate; specimen CG5-66, C. glabrate): S
- Interpretation (C. glabrate; specimen CG7-37, C. glabrate): S
- Interpretation (C. glabrate; specimen CG8-11, C. glabrate): R
- Interpretation (C. parapsilosis; [3]): R
- Interpretation (C. parapsilosis; [4]): S
- Interpretation (C. parapsilosis; specimen CP8-20, C. parapsilosis): R
- Interpretation (C. parapsilosis; [5]): S
- Interpretation (C. parapsilosis; specimen CP12-37, C. parapsilosis): R

From US11485776B2, “Antibodies against infectious diseases” (priority 2015, dated 2022)
